Target: T1, MLLT1 (Homo sapiens, UniProt Q03111)
T1 construct: host or cells: MV4-11
T1 sequence (Q03111 1-559): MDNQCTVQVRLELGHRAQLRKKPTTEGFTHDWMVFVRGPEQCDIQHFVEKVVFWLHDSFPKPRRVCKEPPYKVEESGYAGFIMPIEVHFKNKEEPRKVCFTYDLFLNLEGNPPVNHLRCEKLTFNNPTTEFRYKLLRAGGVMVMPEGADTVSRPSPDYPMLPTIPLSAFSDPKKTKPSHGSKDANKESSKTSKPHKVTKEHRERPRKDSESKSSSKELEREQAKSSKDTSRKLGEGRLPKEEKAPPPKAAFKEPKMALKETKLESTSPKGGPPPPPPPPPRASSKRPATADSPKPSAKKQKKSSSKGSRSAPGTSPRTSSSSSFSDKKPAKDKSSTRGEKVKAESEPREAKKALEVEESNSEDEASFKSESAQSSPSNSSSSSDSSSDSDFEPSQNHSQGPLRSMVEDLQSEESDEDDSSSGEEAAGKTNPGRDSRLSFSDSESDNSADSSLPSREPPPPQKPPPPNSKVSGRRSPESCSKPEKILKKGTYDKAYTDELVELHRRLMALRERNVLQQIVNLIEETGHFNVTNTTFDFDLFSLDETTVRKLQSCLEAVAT
Experiment: MLLT1 degradation assay in MV4-11 cells (JESS chemiluminescent detection), three concentrations, 24 h
Type: cell-based
Settings: with respect to DMSO control
Outline: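 MV4-11 cells treated 24 h at 37° C, 5% CO2 with 1000, 100 and 10 nM compound (0.1% DMSO final). MLLT1 quantified by automated capillary chemiluminescent immunodetection; band peak area expressed as % degradation relative to DMSO control.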

SMILES | MLLT1% Degradation @ 0.01 μM | MLLT1% Degradation @ 0.1 μM | MLLT1% Degradation @ 1 μM
CN1CCC[C@@H]1c1cc2cnc(NC(=O)c3ccc(N4CCC(OC5CCN(c6cccc7c6C(=O)N(C6CCC(=O)NC6=O)C7=O)CC5)CC4)cc3)cc2[nH]1 (stereo partly drawn) [Example 136, 4-(4-((1-(2-(2,6-dioxopiperidin-3-yl)-1,3-dioxoisoindolin-4-yl)piperidin-4-yl)oxy)piperidin-1-yl)-N-(2-((R)-1-methylpyrrolidin-2-yl)-1H-pyrrolo[3,2-c]pyridin-6-yl)benzamide] | C (Category C: 25% ≤ C < 50% degradation) | B (Category B: 50% ≤ B < 75% degradation) | B (Category B: 50% ≤ B < 75% degradation)
CN1CCC[C@@H]1c1cc2cnc(NC(=O)c3ccc(N4CCC(OC5CCN(c6ccc7c(c6)CN(C6CCC(=O)NC6=O)C7=O)CC5)CC4)nc3)cc2[nH]1 (stereo partly drawn) [Example 139, 6-(4-((1-(2-(2,6-dioxopiperidin-3-yl)-1-oxoisoindolin-5-yl)piperidin-4-yl)oxy)piperidin-1-yl)-N-(2-((R)-1-methylpyrrolidin-2-yl)-1H-pyrrolo[3,2-c]pyridin-6-yl)nicotinamide] | B (Category B: 50% ≤ B < 75% degradation) | B (Category B: 50% ≤ B < 75% degradation) | B (Category B: 50% ≤ B < 75% degradation)
CN1CCC[C@@H]1c1cc2cnc(NC(=O)c3ccc(N4CCC(OCC5CCN(c6cccc7c6CN(C6CCC(=O)NC6=O)C7=O)CC5)CC4)cc3)cc2[nH]1 (stereo partly drawn) [Example 146, 4-(4-((1-(2-(2,6-dioxopiperidin-3-yl)-1-oxoisoindolin-4-yl)piperidin-4-yl)methoxy)piperidin-1-yl)-N-(2-((R)-1-methylpyrrolidin-2-yl)-1H-pyrrolo[3,2-c]pyridin-6-yl)benzamide] | B (Category B: 50% ≤ B < 75% degradation) | B (Category B: 50% ≤ B < 75% degradation) | B (Category B: 50% ≤ B < 75% degradation)
CN1CCC[C@@H]1c1cc2cnc(NC(=O)c3ccc(N4CCC(OCC5CCN(c6cccc7c6C(=O)N(C6CCC(=O)NC6=O)C7=O)CC5)CC4)cc3)cc2[nH]1 (stereo partly drawn) [Example 151, 4-(4-((1-(2-(2,6-dioxopiperidin-3-yl)-1,3-dioxoisoindolin-4-yl)piperidin-4-yl)methoxy)piperidin-1-yl)-N-(2-((R)-1-methylpyrrolidin-2-yl)-1H-pyrrolo[3,2-c]pyridin-6-yl)benzamide] | C (Category C: 25% ≤ C < 50% degradation) | B (Category B: 50% ≤ B < 75% degradation) | A (Category A: A ≥ 75% degradation)
CN1CCC[C@@H]1c1cc2cnc(NC(=O)c3ccc(N4CCC(C5CCN(c6cccc7c6C(=O)N(C6CCC(=O)NC6=O)C7=O)CC5)CC4)nc3)cc2[nH]1 (stereo partly drawn) [Example 152, 6-(1′-(2-(2,6-dioxopiperidin-3-yl)-1,3-dioxoisoindolin-4-yl)-[4,4′-bipiperidin]-1-yl)-N-(2-((R)-1-methylpyrrolidin-2-yl)-1H-pyrrolo[3,2-c]pyridin-6-yl)nicotinamide] | D (Category D: D < 25% degradation) | B (Category B: 50% ≤ B < 75% degradation) | A (Category A: A ≥ 75% degradation)
CN1CCC[C@@H]1c1cc2cnc(NC(=O)c3ccc(OCCN4CCC5(CC4)CCN(c4ccc6c(c4)C(=O)N(C4CCC(=O)NC4=O)C6=O)CC5)cc3)cc2[nH]1 (stereo partly drawn) [Example 166, 4-(2-(9-(2-(2,6-dioxopiperidin-3-yl)-1,3-dioxoisoindolin-5-yl)-3,9-diazaspiro[5.5]undecan-3-yl)ethoxy)-N-(2-((R)-1-methylpyrrolidin-2-yl)-1H-pyrrolo[3,2-c]pyridin-6-yl)benzamide] | C (Category C: 25% ≤ C < 50% degradation) | A (Category A: A ≥ 75% degradation) | A (Category A: A ≥ 75% degradation)
CN1CCC[C@@H]1c1cc2cnc(NC(=O)c3ccc(N4CCC(c5ccc(-c6cccc7c6C(=O)N(C6CCC(=O)NC6=O)C7=O)cc5)CC4)nc3)cc2[nH]1 (stereo partly drawn) [Example 178, 6-(4-(4-(2-(2,6-dioxopiperidin-3-yl)-1,3-dioxoisoindolin-4-yl)phenyl)piperidin-1-yl)-N-(2-((R)-1-methylpyrrolidin-2-yl)-1H-pyrrolo[3,2-c]pyridin-6-yl)nicotinamide] | C (Category C: 25% ≤ C < 50% degradation) | B (Category B: 50% ≤ B < 75% degradation) | B (Category B: 50% ≤ B < 75% degradation)
CN1CCC[C@@H]1c1cc2cnc(NC(=O)c3ccc(OCCC4CCN(c5cccc6c5C(=O)N(C5CCC(=O)NC5=O)C6=O)CC4)nc3)cc2[nH]1 (stereo partly drawn) [Example 179, 6-(2-(1-(2-(2,6-dioxopiperidin-3-yl)-1,3-dioxoisoindolin-4-yl)piperidin-4-yl)ethoxy)-N-(2-((R)-1-methylpyrrolidin-2-yl)-1H-pyrrolo[3,2-c]pyridin-6-yl)nicotinamide] | B (Category B: 50% ≤ B < 75% degradation) | B (Category B: 50% ≤ B < 75% degradation) | B (Category B: 50% ≤ B < 75% degradation)
CN1CCC[C@@H]1c1cc2cnc(NC(=O)c3ccc(N4CCN(CC5CCN(c6cc7c(cc6F)C(=O)N(C6CCC(=O)NC6=O)C7=O)CC5)CC4)cc3)cc2[nH]1 (stereo partly drawn) [Example 180, 4-(4-((1-(2-(2,6-dioxopiperidin-3-yl)-6-fluoro-1,3-dioxoisoindolin-5-yl)piperidin-4-yl)methyl)piperazin-1-yl)-N-(2-((R)-1-methylpyrrolidin-2-yl)-1H-pyrrolo[3,2-c]pyridin-6-yl)benzamide] | C (Category C: 25% ≤ C < 50% degradation) | B (Category B: 50% ≤ B < 75% degradation) | B (Category B: 50% ≤ B < 75% degradation)
CN1CCC[C@@H]1c1cc2cnc(NC(=O)c3ccc(N4CCN(CC5CCN(c6ccc(C(=O)N[C@H]7CCC(=O)NC7=O)nc6)CC5)CC4)cc3)cc2[nH]1 [Example 181, N—((S)-2,6-dioxopiperidin-3-yl)-5-(4-((4-(4-((2-((R)-1-methylpyrrolidin-2-yl)-1H-pyrrolo[3,2-c]pyridin-6-yl)carbamoyl)phenyl)piperazin-1-yl)methyl)piperidin-1-yl)picolinamide] | D (Category D: D < 25% degradation) | C (Category C: 25% ≤ C < 50% degradation) | B (Category B: 50% ≤ B < 75% degradation)
CN1CCC[C@@H]1c1cc2cnc(NC(=O)c3ccc(N4CCN(CC5CCN(c6cccc(C(=O)N[C@H]7CCC(=O)NC7=O)n6)CC5)CC4)cc3)cc2[nH]1 [Example 182, N—((S)-2,6-dioxopiperidin-3-yl)-6-(4-((4-(4-((2-((R)-1-methylpyrrolidin-2-yl)-1H-pyrrolo[3,2-c]pyridin-6-yl)carbamoyl)phenyl)piperazin-1-yl)methyl)piperidin-1-yl)picolinamide] | C (Category C: 25% ≤ C < 50% degradation) | B (Category B: 50% ≤ B < 75% degradation) | B (Category B: 50% ≤ B < 75% degradation)
CN1CCC[C@@H]1c1cc2cnc(NC(=O)c3ccc(N4CC(CN5CCN(c6ccc7c(c6)C(=O)N(C6CCC(=O)NC6=O)C7=O)CC5)C4)cc3)cc2[nH]1 (stereo partly drawn) [Example 183, 4-(3-((4-(2-(2,6-dioxopiperidin-3-yl)-1,3-dioxoisoindolin-5-yl)piperazin-1-yl)methyl)azetidin-1-yl)-N-(2-((R)-1-methylpyrrolidin-2-yl)-1H-pyrrolo[3,2-c]pyridin-6-yl)benzamide] | C (Category C: 25% ≤ C < 50% degradation) | B (Category B: 50% ≤ B < 75% degradation) | B (Category B: 50% ≤ B < 75% degradation)
CN1CCC[C@@H]1c1cc2cnc(NC(=O)c3ccc(OC4CCN(CC5CCN(c6cc7c(cc6F)C(=O)N(C6CCC(=O)NC6=O)C7=O)CC5)CC4)cc3)cc2[nH]1 (stereo partly drawn) [Example 184, 4-((1-((1-(2-(2,6-dioxopiperidin-3-yl)-6-fluoro-1,3-dioxoisoindolin-5-yl)piperidin-4-yl)methyl)piperidin-4-yl)oxy)-N-(2-((R)-1-methylpyrrolidin-2-yl)-1H-pyrrolo[3,2-c]pyridin-6-yl)benzamide] | B (Category B: 50% ≤ B < 75% degradation) | A (Category A: A ≥ 75% degradation) | A (Category A: A ≥ 75% degradation)
CN1CCC[C@@H]1c1cc2cnc(NC(=O)c3ccc(N4CCC(C#Cc5cccc6c5CN(C5CCC(=O)NC5=O)C6=O)CC4)nn3)cc2[nH]1 (stereo partly drawn) [Example 185, 6-(4-((2-(2,6-dioxopiperidin-3-yl)-1-oxoisoindolin-4-yl)ethynyl)piperidin-1-yl)-N-(2-((R)-1-methylpyrrolidin-2-yl)-1H-pyrrolo[3,2-c]pyridin-6-yl)pyridazine-3-carboxamide] | C (Category C: 25% ≤ C < 50% degradation) | B (Category B: 50% ≤ B < 75% degradation) | B (Category B: 50% ≤ B < 75% degradation)
